Assays:
E2R2 cells = experiment: Apoptosis induction by Ec, AnnexinV/PI flow cytometry, E2R2 cells; format: cell-based, Human; details: 15 μM Ec for 2 hours, overnight recovery
Method: FIG. 2 ABC50 knockdown partially reverses resistance to Ec in E2R2 cells. A: Western blot of ABC50 expression in E2R2 cells infected with vector control or ABC50 shRNA. B: Apoptosis induction by Ec in E2R2 vector control and ABC50 knockdown cells. Cells were exposed to 15 μM Ec for 2 hours followed by overnight recovery as described in Materials and Methods. The following day, cells were stained with PI and AnnexinV and analysed by flow cytometry. AnnexinV positive, PI negative cells represent early apoptotic cells, AnnexinV positive, PI positive cells represent late apoptotic or necrotic cells.
(§1) To measure apoptosis induced by Econazole (Ec; Sigma-Aldrich, St. Louis, Mo.), cells were treated with Ec in RPMI containing 1% FBS for 2 hours at 37° C. then further incubated overnight in RPMI containing 10% FBS. Apoptosis induced by thapsigargin (Tg; Sigma-Aldrich) or Tunicamycin (Tu; Sigma-Aldrich) was determined after overnight incubation in RPMI containing 1% FBS. The cells were washed with PBS and stained with Annexin V-cy5 Apoptosis Detection kit (Biovision. Inc., Mountain View, Calif.)/PI and analysed by flow cytometry.

HL60 cells [1] = experiment: Apoptosis induction by ER stress agents and etoposide, AnnexinV/PI flow cytometry, HL60 cells; format: cell-based, Human; details: 15 μM Ec 2 hours, 200 nM Tg, 1 μM Tu or 5 μM etoposide overnight; for sensitivity to apoptosis induction, ABC50 knockdown vs vector control: HL60 ABC50 knockdown cells; for sensitivity to apoptosis induction, ABC50 overexpressing vs control cells: HL60 ABC50 overexpressing cells
Method: FIG. 3 ABC50 knockdown alters growth rate and sensitivity to Ec in HL60 cells. A: Western blot of ABC50 expression in HL60 cells infected with vector control or ABC50 shRNA. B: Cell growth kinetics of control and ABC50 knocked-down cells. Values are means and standard errors determined from triplicate cultures and is representative measurement from a series of three independent experiments. ***indicates p<0.001 at 48 hours for ABC50 KD cells vs control. C: Apoptosis induction by serum withdrawal (SW), Ec, Tg, Tu and etoposide (Eto) in HL60 vector control and ABC50 knockdown cells. Cells were exposed to 15 μM Ec for 2 hours followed by overnight recovery as described in Materials and Methods. Cells were incubated overnight in the absence of serum, 200 nM Tg, 1 μM Tu or 5 μM etoposide. The following day, cells were stained with PI and AnnexinV and analysed by flow cytometry. AnnexinV positive, PI negative cells represent early apoptotic cells, AnnexinV positive, PI positive cells represent late apoptotic or necrotic cells. Plotted is early and late apoptotic cells combined. *p<0.05, **p<0.01 comparing knockdown or overexpressing cells to their vector control.
FIG. 4 Effect of ABC50 overexpression on growth rate and sensitivity to ER stress agents in HL60 cells. A: Western blot of ABC50 expression in HL60 cells infected with vector control or ABC50 OE vector. B: Cell growth kinetics of control and ABC50 overexpressing cells. Values are means and standard errors determined from triplicate cultures and is representative measurement from a series of three independent experiments. C: Apoptosis induction by serum withdrawal (SW), Ec, Tg, Tu and etoposide (Eto) in HL60 vector control and ABC50 overexpressing cells. Cells were exposed to 15 μM Ec for 2 hours followed by overnight recovery as described in Materials and Methods. Cells were incubated overnight in the absence of serum, 200 nM Tg, 1 μM Tu or 5 μM etoposide. The following day, cells were stained with PI and AnnexinV and analysed by flow cytometry. AnnexinV positive, PI negative cells represent early apoptotic cells, AnnexinV positive, PI positive cells represent late apoptotic or necrotic cells. Plotted is early and late apoptotic cells combined. *p<0.05, **p<0.01 comparing knockdown or overexpressing cells to their vector control.
as §1

HL60 cells [2] = experiment: Global protein synthesis, 3H-leucine incorporation; format: cell-based, Human; details: 15 μM Ec for 15 minutes
Method: FIG. 8 Effect of ABC50 knockdown or overexpression on global protein synthesis. Cells were incubated with 15 μM Ec for 15 minutes, pulse-labelled with 3H-leucine and incorporation was measured as described in Materials and Methods. A: Vector control vs ABC50 knock-down. B: Vector control vs ABC50 overexpression. The values are averages and standard errors from 4 replicates. This experiment was repeated six times. *p<0.05, **p<0.01 comparing knockdown or overexpressing cells to their vector control.
Cells (2×10^5/sample) were collected, washed with PBS and then re-suspended in RPMI supplemented with fatty acid-free bovine serum albumin (BSA; 0.05%; Sigma). Cells were treated with Ec (0, 15 μM) for 15 min. After centrifugation (2,500 rpm; 5 min), cells were pulse-labeled with [^3H]-leucine (50 μCi/ml) for 10 min (37° C.; 5% CO2) in leucine-free RPMI. After two washes in RPMI, pellets were lysed with Triton X-100 (0.5% in PBS) followed by trichloroacetic acid (TCA, 10% w/v; 4° C.). Samples were washed in TCA (5% w/v), and the protein pellets were re-suspended in microscintillant (Packard, Conn., USA) and measured using a microplate scintillation counter (Packard).

[3] = tested on: ser51-phosphorylated eIF2α; experiment: ER stress response, Western blot of ser51-phosphorylated eIF2α; format: cell-based, Human; details: Ec 15 μM, Tg 200 nM, 60 minutes; for induction of increased levels of phosphorylated eIF2α: ABC50 knockdown cells vs vector control; for levels of phosphorylated eIF2α: ABC50 overexpressing cells, Tu 200 ng/ml
Method: FIG. 6. ABC50 knockdown or overexpression alters the ER stress response. Vector controls, knockdown (A, B) or overexpressing cells (C, D) were exposed to Ec (15 μM), Tg (200 nM) or Tu (200 ng/ml) for 60 minutes. The cells were collected, lysed in RIPA buffer, resolved by SDS-PAGE and analysed with anti-sera specific for A, C: ser51-phosphorylated eIF2α or total eIF2α, B, D: BiP or actin. Numbers represent relative expression levels compared to control normalized to either total eIF2α or actin. The blots are representative of two independent experiments.
Cells were washed with PBS and lysed with Triple lysis buffer (50 mM Tris pH7.0, 150 mM NaCl, 0.1% SDS, 1% NP-40 and 0.5% DOC). Proteinase inhibitor (Boehringer) was added to 10 ml lysis buffer before use. Protein concentration was determined with the Pierce BCA kit. 20 μg of total protein was loaded onto 10% SDS-PAGE, transferred onto filters and blotted with rabbit anti-human ABC50 polyclonal serum (kind gift from Dr. C. Proud, Vancouver, Canada). eIF2α and its phosphorylated form (Ser51) were detected with rabbit polyclonal antibodies from Cell Signalling (Danvers, Mass.). Mouse anti-BiP/GRP78 antibodies were obtained from BD Biosciences (San Jose, Calif.) Anti-actin (pan Ab-5, Clone ACTN05) (Labvision/Neomarker, Fremont, Calif.) was used as a loading control.

sp2 cells = experiment: Cell viability of Ec-selected sp2 cells, Trypan Blue staining; format: cell-based, mouse; details: exposure overnight
Method: FIG. 10. Generation of Ec-resistant sp2 cells. Sp2 cells were exposed to increasing concentrations of Econazole. Cells remaining after treatment were expanded and subjected to additional rounds of selection. A: cell viability for unselected (U) and selected (S) cells. Exposure to Econazole was for 2 hours in low serum medium, followed by a recovery period of 24 hours in full growth medium. Cells were exposed to Thapsigargin (Tg) and Tunicamycin (Tu) overnight. Cell viability was determined by Trypan Blue staining of 200 cells. B: Western blot of ABC50 expression in sp2 cells selected for resistance to Ec showing increased expression. C: Quantitation of expression normalized to actin. **p<0.01, ***p<0.001 comparing selected vs unselected.

Row | Molecule | combined early and late apoptosis (E2R2 cells; E2R2 ABC50 knockdown cells) | combined early and late apoptosis (E2R2 cells; E2R2 vector control cells) | sensitivity to apoptosis induction, ABC50 knockdown vs vector control (HL60 cells [1]) | sensitivity to apoptosis induction, ABC50 overexpressing vs control cells (HL60 cells [1]) | protein synthesis rates after exposure (HL60 cells [2]; ABC50 knock down cells) | protein synthesis level after exposure, compared to control cells (HL60 cells [2]; ABC50 overexpressing cells) | protein synthesis levels after exposure (HL60 cells [2]; vector control cells) | induction of increased levels of phosphorylated eIF2α [3] | levels of phosphorylated eIF2α [3] | resistance of Ec-resistant sp2 cells (cell viability, selected vs unselected) (sp2 cells)
1 | Clc1ccc(COC(Cn2ccnc2)c2ccc(Cl)cc2Cl)cc1 (centres unmarked) [Ec, 1-[2-[(4-chlorophenyl)methoxy]-2-(2,4-dichlorophenyl)ethyl]-1H-imidazole] | 21.4% | 7.6% | significantly increased the sensitivity | decreased sensitivity | reduced protein synthesis rates even further | significantly less reduced | significant decrease | particularly effective | reduced levels | –
2 | C/C=C(/C)C(=O)O[C@H]1C(C)=C2[C@H]([C@@H]1OC(=O)CCCCCCC)[C@@](C)(OC(C)=O)C[C@H](OC(=O)CCC)[C@@]1(O)[C@H]2OC(=O)[C@@]1(C)O [Tg, thapsigargin] | – | – | significantly increased the sensitivity | decreased sensitivity | – | – | – | particularly effective | reduced levels | relatively resistant
3 | COc1cc([C@@H]2c3cc4c(cc3[C@@H](O[C@@H]3O[C@@H]5CO[C@@H](C)O[C@H]5[C@H](O)[C@H]3O)[C@H]3COC(=O)[C@H]23)OCO4)cc(OC)c1O [etoposide] | – | – | did not affect sensitivity | unchanged | – | – | – | – | – | –
4 | Tunicamycin | – | – | significantly increased the sensitivity | decreased sensitivity | – | – | – | – | reduced levels | relatively resistant

From US8691529B2, “Increasing protein production by increasing ABC50 expression or activity” (University Health Network, priority 2009, dated 2014)
